± gives the standard deviation of the averaged measurements.
Tests used:
[1] = test system: HSV-1 K26-GFP infected 3D skin equivalent; test: % activity on HSV-1 GFP signal (0 = infected DMSO control, -100 = uninfected control); higher = higher signal (negative = inhibition / toxicity); settings: time (h post infection): 48
Protocol: (§1)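 Triplicate dose-response (0.04 to 10 uM) of 11 top compounds in 3D bioprinted skin equivalents (submerged and ALI models) infected with GFP-HSV-1 K26 at MOI 0.1 and fixed at 48 hpi. GFP (virus) and tdTomato (fibroblast viability) signals are normalised to per-plate controls.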

[2] = test system: HSV-1 K26-GFP infected primary human skin cells; test: % change of HSV-1 GFP signal vs untreated infected cells; higher = less antiviral inhibition; settings: cell type: primary dermal fibroblasts, time (h post infection): 48
Protocol: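 2D primary donor-derived dermal fibroblasts infected with GFP-HSV-1 K26 at MOI 1, treated 1 h later with compound dilutions and read at 48 hpi on IncuCyte. GFP integrated intensity is normalised to mock-infected and untreated infected wells (% change; -100 = full inhibition).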

[3] = test system: HSV-1 K26-GFP infected 3D skin equivalent; test: % change of tdTomato fibroblast signal relative to infected DMSO control; higher = higher signal (negative = inhibition / toxicity); settings: time (h post infection): 48
Protocol: as §1

[4] = test system: primary dermal fibroblasts; test: % change in live cells vs DMSO control; higher = less cytotoxic; settings: time (h post treatment): 48
Protocol: (§2)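 Cytotoxicity in uninfected 2D primary donor keratinocytes (20 h post treatment) and fibroblasts (48 h post treatment), measured with NucSpot live/dead dyes on IncuCyte. Live cells are normalised to the 0.2% DMSO control and shown as % change. Three biological replicates for each of donors 3, 4 and 5.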

primary keratinocytes = test: as above; settings: time (h post treatment): 20
Protocol: as §2

CC(C)c1cnn2c(NCc3ccccc3-n3cccn3)nc(OC3CCCNC3)nc12 (stereo unspecified) [LDC4297]
Settings	% activity on HSV-1 GFP signal [%]	% change in live cells [%]	% change of HSV-1 GFP signal [%]	% change of tdTomato fibroblast signal [%]
[1], 0.041152 µM, model: ALI	-23.3 ± 22	–	–	–
[1], 0.041152 µM, model: submerged	-10.7 ± 1.2	–	–	–
[1], 0.123457 µM, model: ALI	-67.2 ± 25	–	–	–
[1], 0.123457 µM, model: submerged	-16.1 ± 16	–	–	–
[1], 0.37037 µM, model: ALI	-88.4 ± 7.3	–	–	–
[1], 0.37037 µM, model: submerged	-44.7 ± 10	–	–	–
[1], 1.111111 µM, model: ALI	-99.9 ± 9.8	–	–	–
[1], 1.111111 µM, model: submerged	-54.4 ± 2.2	–	–	–
[1], 3.33333 µM, model: ALI	-105 ± 10	–	–	–
[1], 3.33333 µM, model: submerged	-74.5 ± 4.4	–	–	–
[1], 10 µM, model: ALI	-99.9 ± 9.1	–	–	–
[1], 10 µM, model: submerged	-94.8 ± 1	–	–	–
[2], 0.003 µM, donor: 3	–	–	20.9 ± 32	–
[2], 0.0091 µM, donor: 3	–	–	21.8 ± 34	–
[2], 0.0091 µM, donor: 4	–	–	2.39 ± 18	–
[2], 0.0274 µM, donor: 3	–	–	21.6 ± 34	–
[2], 0.0274 µM, donor: 4	–	–	1.27 ± 22	–
[2], 0.0823 µM, donor: 3	–	–	14.2 ± 35	–
[2], 0.0823 µM, donor: 4	–	–	-5.21 ± 23	–
[2], 0.2469 µM, donor: 3	–	–	-5.39 ± 37	–
[2], 0.2469 µM, donor: 4	–	–	-24 ± 20	–
[2], 0.7407 µM, donor: 3	–	–	-27.1 ± 25	–
[2], 0.7407 µM, donor: 4	–	–	-34.7 ± 12	–
[2], 2.2222 µM, donor: 3	–	–	-57.2 ± 13	–
[2], 2.2222 µM, donor: 4	–	–	-53.3 ± 1.5	–
[2], 6.6667 µM, donor: 3	–	–	-98.3 ± 1.2	–
[2], 6.6667 µM, donor: 4	–	–	-92.4 ± 3.9	–
[2], 20 µM, donor: 3	–	–	-100.3 ± 0.64	–
[2], 20 µM, donor: 4	–	–	-99.916 ± 0.033	–
[2], 60 µM, donor: 3	–	–	-100.3 ± 0.73	–
[2], 60 µM, donor: 4	–	–	-99.83 ± 0.18	–
[3], 0.041152 µM, model: ALI	–	–	–	-1.16 ± 2.5
[3], 0.041152 µM, model: submerged	–	–	–	7.31 ± 3.4
[3], 0.123457 µM, model: ALI	–	–	–	-6.21 ± 6.1
[3], 0.123457 µM, model: submerged	–	–	–	-0.0281 ± 6.4
[3], 0.37037 µM, model: ALI	–	–	–	-7.32 ± 13
[3], 0.37037 µM, model: submerged	–	–	–	-5.4 ± 9.1
[3], 1.111111 µM, model: ALI	–	–	–	-9.38 ± 11
[3], 1.111111 µM, model: submerged	–	–	–	8.7 ± 11
[3], 3.33333 µM, model: ALI	–	–	–	-3.18 ± 16
[3], 3.33333 µM, model: submerged	–	–	–	7.79 ± 9.1
[3], 10 µM, model: ALI	–	–	–	1.92 ± 9.9
[3], 10 µM, model: submerged	–	–	–	-14.8 ± 14
[4], 0.082305 µM, donor: 3	–	-12.3 ± 19	–	–
[4], 0.082305 µM, donor: 4	–	-2.33 ± 1.5	–	–
[4], 0.082305 µM, donor: 5	–	-0.667 ± 5.5	–	–
[4], 0.246914 µM, donor: 3	–	-11.3 ± 15	–	–
[4], 0.246914 µM, donor: 4	–	-6.33 ± 3.5	–	–
[4], 0.246914 µM, donor: 5	–	-2.33 ± 10	–	–
[4], 0.740741 µM, donor: 3	–	-17.3 ± 16	–	–
[4], 0.740741 µM, donor: 4	–	-5.33 ± 3.2	–	–
[4], 0.740741 µM, donor: 5	–	-7 ± 13	–	–
[4], 2.22222 µM, donor: 3	–	-22.3 ± 12	–	–
[4], 2.22222 µM, donor: 4	–	-5 ± 5.3	–	–
[4], 2.22222 µM, donor: 5	–	-16.3 ± 15	–	–
[4], 6.66667 µM, donor: 3	–	-23 ± 15	–	–
[4], 6.66667 µM, donor: 4	–	-7.33 ± 9.9	–	–
[4], 6.66667 µM, donor: 5	–	-22.7 ± 10	–	–
[4], 20 µM, donor: 3	–	-24.3 ± 21	–	–
[4], 20 µM, donor: 4	–	-3 ± 6.6	–	–
[4], 20 µM, donor: 5	–	-27.3 ± 12	–	–
[4], 60 µM, donor: 3	–	-30.3 ± 29	–	–
[4], 60 µM, donor: 4	–	0.667 ± 11	–	–
[4], 60 µM, donor: 5	–	-33 ± 2.6	–	–
primary keratinocytes, 0.082305 µM, donor: 3	–	-12 ± 8.2	–	–
primary keratinocytes, 0.082305 µM, donor: 4	–	1 ± 7.8	–	–
primary keratinocytes, 0.082305 µM, donor: 5	–	-10.3 ± 1.5	–	–
primary keratinocytes, 0.246914 µM, donor: 3	–	-41.3 ± 19	–	–
primary keratinocytes, 0.246914 µM, donor: 4	–	-17.7 ± 23	–	–
primary keratinocytes, 0.246914 µM, donor: 5	–	-17 ± 7	–	–
primary keratinocytes, 0.740741 µM, donor: 3	–	-36 ± 8.5	–	–
primary keratinocytes, 0.740741 µM, donor: 4	–	-37 ± 15	–	–
primary keratinocytes, 0.740741 µM, donor: 5	–	-27.7 ± 5.9	–	–
primary keratinocytes, 2.22222 µM, donor: 3	–	-56.3 ± 5.1	–	–
primary keratinocytes, 2.22222 µM, donor: 4	–	-70 ± 24	–	–
primary keratinocytes, 2.22222 µM, donor: 5	–	-51.7 ± 6.1	–	–
primary keratinocytes, 6.66667 µM, donor: 3	–	-75 ± 5.3	–	–
primary keratinocytes, 6.66667 µM, donor: 4	–	-98.67 ± 0.58	–	–
primary keratinocytes, 6.66667 µM, donor: 5	–	-94.33 ± 0.58	–	–
primary keratinocytes, 20 µM, donor: 3	–	-80.3 ± 1.5	–	–
primary keratinocytes, 20 µM, donor: 4	–	-97.7 ± 3.2	–	–
primary keratinocytes, 20 µM, donor: 5	–	-95	–	–
primary keratinocytes, 60 µM, donor: 3	–	-90 ± 1	–	–
primary keratinocytes, 60 µM, donor: 4	–	-99.67 ± 0.58	–	–
primary keratinocytes, 60 µM, donor: 5	–	-95.3 ± 1.1	–	–

CC(=O)O[C@H]1C[C@H](O[C@H]2[C@@H](O)C[C@H](O[C@H]3[C@@H](O)C[C@H](O[C@H]4CC[C@@]5(C)[C@H](CC[C@@H]6[C@@H]5C[C@@H](O)[C@]5(C)[C@@H](C7=CC(=O)OC7)CC[C@]65O)C4)O[C@@H]3C)O[C@@H]2C)O[C@H](C)[C@H]1O[C@@H]1O[C@H](CO)[C@@H](O)[C@H](O)[C@H]1O [Lanatoside C]
Settings	% activity on HSV-1 GFP signal, [1] [%]	% change in live cells, [4] [%]	% change in live cells, primary keratinocytes [%]	% change of tdTomato fibroblast signal, [3] [%]
0.041152 µM, model: ALI	-34.1 ± 29	–	–	2.37 ± 4.6
0.041152 µM, model: submerged	-5.47 ± 10	–	–	-1.16 ± 12
0.082305 µM, donor: 3	–	-25.7 ± 14	-27 ± 14	–
0.082305 µM, donor: 4	–	-1.33 ± 4	-18 ± 5.2	–
0.082305 µM, donor: 5	–	-11.3 ± 12	-3.67 ± 2.1	–
0.123457 µM, model: ALI	-95.2 ± 11	–	–	5.13 ± 5.8
0.123457 µM, model: submerged	-72.7 ± 1.2	–	–	-17.7 ± 6.7
0.246914 µM, donor: 3	–	-39.7 ± 12	-47 ± 2.6	–
0.246914 µM, donor: 4	–	-20 ± 6.9	-39.7 ± 13	–
0.246914 µM, donor: 5	–	-32.7 ± 14	-54.3 ± 2.5	–
0.37037 µM, model: ALI	-105 ± 6.7	–	–	-2.13 ± 2.2
0.37037 µM, model: submerged	-99.6 ± 2.2	–	–	-23.6 ± 11
0.740741 µM, donor: 3	–	-48.3 ± 11	-55.3 ± 3.5	–
0.740741 µM, donor: 4	–	-28.3 ± 19	-63 ± 12	–
0.740741 µM, donor: 5	–	-31.7 ± 21	-58.3 ± 3.2	–
1.111111 µM, model: ALI	-104 ± 4.6	–	–	0.581 ± 7.9
1.111111 µM, model: submerged	-103 ± 3.2	–	–	-37.1 ± 11
2.22222 µM, donor: 3	–	-47 ± 12	-53.7 ± 6.1	–
2.22222 µM, donor: 4	–	-29.7 ± 17	-64 ± 12	–
2.22222 µM, donor: 5	–	-37.3 ± 19	-59 ± 5.3	–
3.33333 µM, model: ALI	-104 ± 3.4	–	–	-5.14 ± 4.6
3.33333 µM, model: submerged	-104 ± 3.9	–	–	-52.9 ± 2.2
6.66667 µM, donor: 3	–	-46 ± 13	-58 ± 6.2	–
6.66667 µM, donor: 4	–	-24.3 ± 12	-71.3 ± 9.1	–
6.66667 µM, donor: 5	–	-42 ± 14	-56.3 ± 2.5	–
10 µM, model: ALI	-99.5 ± 6.6	–	–	-4.98 ± 4.8
10 µM, model: submerged	-107 ± 5.8	–	–	-56.04 ± 0.53
20 µM, donor: 3	–	-43.3 ± 17	-67.7 ± 4.5	–
20 µM, donor: 4	–	-22.7 ± 16	-76.3 ± 9.6	–
20 µM, donor: 5	–	-46.7 ± 20	-57.3 ± 7.1	–
60 µM, donor: 3	–	-49.3 ± 19	-71.3 ± 10	–
60 µM, donor: 4	–	-23.3 ± 8.1	-76.3 ± 9.5	–
60 µM, donor: 5	–	-58.7 ± 7.8	-62.3 ± 6.4	–

Reference: the supplement of paper PMC12533247
